{
  "source": "paper PMC6378217",
  "about": "“The lysyl oxidase like 2/3 enzymatic inhibitor, PXS‐5153A, reduces crosslinks and ameliorates fibrosis” (Journal of Cellular and Molecular Medicine, 2018)",
  "key": {"Recombinant rat LOXL2": {"molecular_target": "T1, Recombinant rat LOXL2 (Rattus norvegicus, UniProt B5DF27)", "T1 construct": "made in house; host or cells: HEK-293 clones provided by Dr. Fernando Rodríguez Pascual", "T1 sequence (B5DF27 26-776)": "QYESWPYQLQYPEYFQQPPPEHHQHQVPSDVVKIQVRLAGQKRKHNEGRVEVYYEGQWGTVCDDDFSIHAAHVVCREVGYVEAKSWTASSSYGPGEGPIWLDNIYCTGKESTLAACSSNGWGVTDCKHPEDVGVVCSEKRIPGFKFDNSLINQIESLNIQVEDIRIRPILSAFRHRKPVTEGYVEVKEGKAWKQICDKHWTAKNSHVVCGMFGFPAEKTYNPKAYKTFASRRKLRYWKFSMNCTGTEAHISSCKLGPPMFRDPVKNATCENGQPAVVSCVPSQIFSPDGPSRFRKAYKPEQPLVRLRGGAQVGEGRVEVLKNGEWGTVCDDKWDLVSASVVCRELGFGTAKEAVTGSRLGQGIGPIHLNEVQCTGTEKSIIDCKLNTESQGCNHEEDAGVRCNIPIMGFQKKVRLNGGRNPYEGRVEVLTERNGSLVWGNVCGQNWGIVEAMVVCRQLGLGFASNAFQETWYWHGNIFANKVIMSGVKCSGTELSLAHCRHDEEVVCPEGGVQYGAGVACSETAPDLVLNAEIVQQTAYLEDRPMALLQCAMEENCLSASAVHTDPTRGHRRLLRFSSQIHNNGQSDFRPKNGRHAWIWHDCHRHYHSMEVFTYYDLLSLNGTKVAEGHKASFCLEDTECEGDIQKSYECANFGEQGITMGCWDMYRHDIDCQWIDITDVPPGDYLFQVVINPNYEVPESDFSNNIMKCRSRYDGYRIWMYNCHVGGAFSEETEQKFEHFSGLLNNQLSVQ", "assay": "Amplex-Red fluorometric enzymatic activity assay, recombinant rat LOXL2", "type": "biochemical", "conditions": "30 minute pre-incubation; average of at least three experiments", "protocol": "(§1) The measurement of the enzymatic activity of all lysyl oxidase family members was based on the detection of hydrogen peroxide with an Amplex‐Red oxidation assay, as described in Zhou et al26 Recombinant human semicarbazide sensitive amine oxidase (SSAO/VAP1), diamine oxidase (DAO) and monoamine oxidases A and B (MAO‐A and MAO‐B) assays were performed as previously described.27 For detailed enzymatic procedures, see supporting information.\n(§2) The measurement of the enzymatic activity of all lysyl oxidase family members was based on the detection of hydrogen peroxide with an Amplex-Red oxidation assay, as described in Zhou et al.[1]; miniaturised in 384 well format, with the appropriate combination of substrate and assay buffer for each individual enzyme. After a 30 minute pre-incubation of the enzyme at 37 °C with the test compound (or with different incubation times for the time-dependency assay), one volume of reaction mixture containing 120 μM Amplex Red (AR) (Life Technologies), 1.5 U/mL horseradish peroxidase (HRP) (Sigma-Aldrich) and the specific substrate was added to each sample. The relative fluorescence units (RFU) were then measured every 2.5 minutes for 30 minutes at 37°C, excitation 565 nm and emission 590, on a BMG Clariostar Microplate Reader. […]"}, "Cannabinoid CB1": {"molecular_target": "Cannabinoid CB1 (Homo sapiens, UniProt P21554)", "sequence (P21554 whole entry)": "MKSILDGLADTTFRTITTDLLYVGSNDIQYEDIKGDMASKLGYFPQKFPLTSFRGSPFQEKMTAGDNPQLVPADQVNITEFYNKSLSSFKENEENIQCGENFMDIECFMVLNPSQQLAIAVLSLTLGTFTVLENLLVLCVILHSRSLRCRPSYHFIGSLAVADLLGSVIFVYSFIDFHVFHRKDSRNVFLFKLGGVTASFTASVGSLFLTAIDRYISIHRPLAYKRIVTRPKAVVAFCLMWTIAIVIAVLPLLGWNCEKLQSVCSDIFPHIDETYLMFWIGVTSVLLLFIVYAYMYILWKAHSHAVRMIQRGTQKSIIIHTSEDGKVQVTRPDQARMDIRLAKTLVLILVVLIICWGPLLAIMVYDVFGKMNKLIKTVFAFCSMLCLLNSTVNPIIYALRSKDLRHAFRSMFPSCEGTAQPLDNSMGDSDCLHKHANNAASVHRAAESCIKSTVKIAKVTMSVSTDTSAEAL", "assay": "Eurofins Hit Profiling Screen", "type": "binding", "conditions": "10 μmol/L"}, "Potassium Channel [KATP]": {"molecular_target": "Potassium Channel [KATP] (Cricetus cricetus, UniProt Q09427)", "sequence (Q09427 whole entry)": "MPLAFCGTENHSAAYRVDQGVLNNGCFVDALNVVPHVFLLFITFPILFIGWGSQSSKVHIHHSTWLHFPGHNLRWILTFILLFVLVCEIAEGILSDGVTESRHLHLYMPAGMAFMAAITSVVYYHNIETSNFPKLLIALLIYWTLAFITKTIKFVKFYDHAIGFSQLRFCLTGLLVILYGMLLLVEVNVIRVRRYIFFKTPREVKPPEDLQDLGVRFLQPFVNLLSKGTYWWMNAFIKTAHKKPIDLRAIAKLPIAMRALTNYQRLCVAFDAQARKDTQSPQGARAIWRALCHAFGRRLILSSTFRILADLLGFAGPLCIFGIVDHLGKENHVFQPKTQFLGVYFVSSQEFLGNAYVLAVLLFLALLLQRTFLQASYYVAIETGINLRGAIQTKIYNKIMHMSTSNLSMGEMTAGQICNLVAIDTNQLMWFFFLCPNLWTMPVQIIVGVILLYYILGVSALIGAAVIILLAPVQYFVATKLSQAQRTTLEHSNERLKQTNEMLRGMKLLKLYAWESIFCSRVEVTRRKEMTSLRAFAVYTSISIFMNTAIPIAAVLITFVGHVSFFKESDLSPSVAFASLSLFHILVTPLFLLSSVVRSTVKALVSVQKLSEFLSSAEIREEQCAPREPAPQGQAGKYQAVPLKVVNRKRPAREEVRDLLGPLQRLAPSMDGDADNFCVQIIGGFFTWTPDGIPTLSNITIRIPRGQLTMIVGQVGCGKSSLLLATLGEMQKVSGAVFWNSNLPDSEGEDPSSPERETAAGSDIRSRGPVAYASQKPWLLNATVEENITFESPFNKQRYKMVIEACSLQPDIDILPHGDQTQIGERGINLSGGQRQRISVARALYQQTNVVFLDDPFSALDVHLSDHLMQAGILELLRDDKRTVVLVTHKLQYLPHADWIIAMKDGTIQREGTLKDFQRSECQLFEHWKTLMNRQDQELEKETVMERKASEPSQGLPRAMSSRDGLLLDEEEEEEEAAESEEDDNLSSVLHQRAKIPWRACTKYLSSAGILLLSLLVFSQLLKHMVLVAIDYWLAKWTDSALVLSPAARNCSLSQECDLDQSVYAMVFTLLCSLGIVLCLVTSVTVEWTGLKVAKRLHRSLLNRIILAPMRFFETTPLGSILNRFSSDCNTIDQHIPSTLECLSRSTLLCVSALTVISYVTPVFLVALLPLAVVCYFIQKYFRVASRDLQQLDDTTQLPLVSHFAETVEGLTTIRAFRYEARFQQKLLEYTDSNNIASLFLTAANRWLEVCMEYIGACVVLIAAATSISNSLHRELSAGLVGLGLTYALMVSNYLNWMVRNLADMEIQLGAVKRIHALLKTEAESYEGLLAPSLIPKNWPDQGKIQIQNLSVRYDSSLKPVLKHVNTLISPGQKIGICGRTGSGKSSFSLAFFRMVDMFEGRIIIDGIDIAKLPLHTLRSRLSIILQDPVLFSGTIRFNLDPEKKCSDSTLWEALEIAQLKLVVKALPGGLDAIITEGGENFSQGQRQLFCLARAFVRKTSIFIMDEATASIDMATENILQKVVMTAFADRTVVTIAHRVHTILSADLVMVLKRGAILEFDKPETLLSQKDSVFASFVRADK", "assay": "Eurofins Hit Profiling Screen", "type": "binding", "conditions": "10 μmol/L", "protocol": "PXS‐5153A was tested at Eurofins Cerep Panlabs Taiwan, Ltd in the “Hit Profiling Screen”, which tested 30 different targets.\nEurofins Hit Profiling Screen, was performed to evaluate the off -target profile of PXS-5153A. Biochemical assay results are presented as the percent inhibition of specific binding or activity."}, "LOXL2": {"molecular_target": "T2, LOXL2 (Homo sapiens, UniProt Q9Y4K0)", "T2 sequence (Q9Y4K0 26-774)": "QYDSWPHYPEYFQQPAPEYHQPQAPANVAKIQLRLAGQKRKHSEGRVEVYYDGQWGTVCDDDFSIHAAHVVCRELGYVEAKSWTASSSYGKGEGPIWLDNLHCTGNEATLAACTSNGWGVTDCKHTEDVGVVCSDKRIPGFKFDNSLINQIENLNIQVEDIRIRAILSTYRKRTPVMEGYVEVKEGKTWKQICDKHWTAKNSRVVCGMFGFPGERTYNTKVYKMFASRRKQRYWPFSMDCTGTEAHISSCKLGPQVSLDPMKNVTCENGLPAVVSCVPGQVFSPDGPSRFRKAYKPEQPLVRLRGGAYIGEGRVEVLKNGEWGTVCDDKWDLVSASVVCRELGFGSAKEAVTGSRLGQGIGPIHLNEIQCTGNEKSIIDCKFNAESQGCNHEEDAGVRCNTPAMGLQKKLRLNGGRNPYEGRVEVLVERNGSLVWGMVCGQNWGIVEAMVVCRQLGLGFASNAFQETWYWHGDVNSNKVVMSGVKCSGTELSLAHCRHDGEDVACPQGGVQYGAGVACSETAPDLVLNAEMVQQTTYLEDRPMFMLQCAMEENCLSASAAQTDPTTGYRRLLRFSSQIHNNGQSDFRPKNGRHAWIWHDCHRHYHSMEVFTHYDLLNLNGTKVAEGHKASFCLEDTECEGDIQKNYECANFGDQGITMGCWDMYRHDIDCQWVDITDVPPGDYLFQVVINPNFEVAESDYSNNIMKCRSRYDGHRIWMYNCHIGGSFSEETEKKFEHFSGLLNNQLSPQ", "assay": "Time dependency of LOXL2 inhibition", "type": "biochemical", "protocol": "The measurement of the enzymatic activity of all lysyl oxidase family members was based on the detection of hydrogen peroxide with an Amplex-Red oxidation assay, as described in Zhou et al.[1]; miniaturised in 384 well format, with the appropriate combination of substrate and assay buffer for each individual enzyme. After a 30 minute pre-incubation of the enzyme at 37 °C with the test compound (or with different incubation times for the time-dependency assay), one volume of reaction mixture containing 120 μM Amplex Red (AR) (Life Technologies), 1.5 U/mL horseradish peroxidase (HRP) (Sigma-Aldrich) and the specific substrate was added to each sample. The relative fluorescence units (RFU) were then measured every 2.5 minutes for 30 minutes at 37°C, excitation 565 nm and emission 590, on a BMG Clariostar Microplate Reader. All the substrates were used at concentrations corresponding to their Km towards the corresponding enzyme, or with a range of different concentrations for the substrate competition experiments.\nTime-dependent inhibition of the target by the compound was assessed by pre-incubation of 25 uL of target enzyme at 37 °C in a 384-well plate. An 11-point dilution was carried out of the test compound followed by its addition at 0.5 uL to the enzyme plate at different time points (0 minutes, 15 minutes, 30 minutes, 1hour, 2 hours and 4 hours unless otherwise stated in the graph). At the last time point, the reaction mixture was added and the relative fluorescence was measured."}, "[1]": {"tested_on": "NASH-induced liver disease", "assay": "NASH-induced liver disease (streptozotocin/high fat diet, STAM)", "type": "in vivo, C57/BL6 mice", "protocol": "Pellet then underwent acid hydrolysis in 6 mol/L HCl at 100°C for 24 hours. Hydroxyproline and crosslinks were extracted from the hydrolysate using an automated solid phase extraction system (Gilson […] system). After extraction and drying, hydroxyproline and crosslinks were analysed by UHPLC-ESI-MS/MS on a Thermo Dionex UHPLC and TSQ Endura triple quad mass spectrometer. Total protein was quantified in the samples using a commercially available kit (QuickZyme Biosciences, Leiden, The Netherlands). For detailed procedures, see supporting information. The study was performed by Stelic MC, Inc. (Tokyo, Japan) with approval from local ethics committee. NASH was established in male C57/BL6 mice by a single subcutaneous injection of 200 μg streptozotocin (Sigma-Aldrich) after birth and with a high fat diet (CLEA Japan) ad libitum after 4 weeks of age (day 28 ± 2) until 14 weeks of age. Mice were orally administered with 10 mg/kg PXS-5153A once daily from 8 to 14 weeks of age. ALT levels were assessed in the plasma. One lobe of the liver tissue was fixed in 10% formalin, stained for Sirius red and the percentage coverage area was measured; HE staining was performed to estimate non-alcoholic fatty liver disease (NAFLD) activity score according to the criteria of Kleiner et al28 The remainder of the liver was snap frozen and used for protein, hydroxyproline and crosslink analysis."}, "Recombinant human LOXL4": {"molecular_target": "T3, Recombinant human LOXL4 (Homo sapiens, UniProt Q96JB6)", "T3 construct": "obtained from Dr. Fernando Rodríguez Pascual, university of Madrid, Spain (academic provider, not a vendor)", "T3 sequence (Q96JB6 25-756)": "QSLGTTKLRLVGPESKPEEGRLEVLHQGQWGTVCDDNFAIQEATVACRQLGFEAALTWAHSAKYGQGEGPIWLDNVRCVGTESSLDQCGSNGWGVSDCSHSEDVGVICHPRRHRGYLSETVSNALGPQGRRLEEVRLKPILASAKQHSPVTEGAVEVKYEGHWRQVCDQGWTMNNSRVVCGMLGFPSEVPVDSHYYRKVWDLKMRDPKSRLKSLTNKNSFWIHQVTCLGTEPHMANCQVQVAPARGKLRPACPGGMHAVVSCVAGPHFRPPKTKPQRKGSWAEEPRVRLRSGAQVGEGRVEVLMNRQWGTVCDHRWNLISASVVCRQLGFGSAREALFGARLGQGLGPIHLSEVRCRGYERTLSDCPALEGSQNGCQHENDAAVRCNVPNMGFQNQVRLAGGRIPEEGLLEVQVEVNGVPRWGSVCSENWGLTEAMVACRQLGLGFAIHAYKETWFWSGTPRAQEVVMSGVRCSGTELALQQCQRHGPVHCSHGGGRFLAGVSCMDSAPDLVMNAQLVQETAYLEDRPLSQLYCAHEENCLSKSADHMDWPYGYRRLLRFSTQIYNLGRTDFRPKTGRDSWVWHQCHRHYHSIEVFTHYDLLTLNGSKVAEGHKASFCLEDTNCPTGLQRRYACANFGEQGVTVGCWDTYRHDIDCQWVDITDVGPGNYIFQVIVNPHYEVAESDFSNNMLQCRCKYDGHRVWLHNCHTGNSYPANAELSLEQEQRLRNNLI", "assay": "Amplex-Red fluorometric enzymatic activity assay, recombinant human LOXL4", "type": "biochemical", "conditions": "30 minute pre-incubation; average of at least three experiments", "protocol": "as §1, §2"}},
  "data": [
    {"smiles": "Cc1c(-c2cccc(S(=O)(=O)N(C)C)c2)c2ncccc2n1C/C(F)=C/CN.Cl.Cl", "note": "[PXS-5153A]", "values": [
      {"measurement": "IC50", "setting": "Recombinant rat LOXL2", "value": 0.015, "unit": "µM"},
      {"measurement": "pIC50 ± SD", "setting": "Recombinant rat LOXL2", "value": "7.8 ± 0"},
      {"measurement": "% inhibition", "setting": "Cannabinoid CB1", "value": 17, "unit": "%"},
      {"measurement": "% inhibition", "setting": "Potassium Channel [KATP]", "value": 8, "unit": "%"},
      {"measurement": "time to complete inhibition of the enzyme", "setting": "LOXL2; at 10xIC50", "value": "≤ 15", "unit": "min"},
      {"measurement": "time until enzymatic activity almost entirely blocked", "setting": "LOXL2; judged by the shift in the concentration response curves", "value": "≤ 15", "unit": "min"},
      {"measurement": "time-dependent LOXL2 inhibition", "setting": "LOXL2; longer incubation with the enzyme", "value": "increased potency upon longer incubation with the enzyme"},
      {"measurement": "DHLNL", "setting": "[1]; 10 mg/kg orally once daily", "value": "significantly reduced"},
      {"measurement": "NASH disease score (NAFLD activity score)", "setting": "[1]; 10 mg/kg orally once daily", "value": "reduction"},
      {"measurement": "PYD", "setting": "[1]; 10 mg/kg orally once daily", "value": "significantly reduced"},
      {"measurement": "hepatocyte ballooning", "setting": "[1]; 10 mg/kg orally once daily", "value": "significantly reduced"},
      {"measurement": "percentage coverage area by Picrosirius red staining", "setting": "[1]; 10 mg/kg orally once daily", "value": "reduced"},
      {"measurement": "HYP", "setting": "[1]; 10 mg/kg orally once daily from 8 to 14 weeks of age", "value": "significantly reduction"},
      {"measurement": "IC50", "setting": "Recombinant human LOXL4", "value": 0.104, "unit": "µM"},
      {"measurement": "pIC50 ± SD", "setting": "Recombinant human LOXL4", "value": "7 ± 0.1"}
    ]}
  ]
}
